# Columns and labels:
# IRAK4 [1] = target: T1, IRAK4 (Homo sapiens, UniProt Q9NWZ3); experiment: 2-hour 1 mM ATP IRAK4 Biochemical assay (as above, but with 100 pM IRAK4 and 1 mM ATP); details: IRAK4 MSD BIOCHEMICAL (1 mM ATP) IC50 (μM), 100 pM IRAK4, 2 hours
# T1 sequence (Q9NWZ3 1-460): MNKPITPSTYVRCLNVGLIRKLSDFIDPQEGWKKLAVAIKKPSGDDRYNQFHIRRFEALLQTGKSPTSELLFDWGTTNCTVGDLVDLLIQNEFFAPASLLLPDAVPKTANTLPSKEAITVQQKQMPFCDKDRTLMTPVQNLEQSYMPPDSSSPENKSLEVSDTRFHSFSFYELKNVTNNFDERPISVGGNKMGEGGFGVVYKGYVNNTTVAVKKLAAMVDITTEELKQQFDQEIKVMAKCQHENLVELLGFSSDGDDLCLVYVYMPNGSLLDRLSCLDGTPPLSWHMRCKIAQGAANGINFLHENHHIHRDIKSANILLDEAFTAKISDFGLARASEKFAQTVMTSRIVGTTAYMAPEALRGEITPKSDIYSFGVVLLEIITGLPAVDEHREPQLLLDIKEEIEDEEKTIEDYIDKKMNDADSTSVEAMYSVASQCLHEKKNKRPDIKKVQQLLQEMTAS
# In short: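 MSD electrochemiluminescence read-out: biotinylated peptide product bound to streptavidin plates, probed with anti-P-Thr rabbit antibody and Sulfo-Tag goat anti-rabbit. Kinase reaction used 1 mM ATP and 100 pM IRAK4 over 2 hours before EDTA quench.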
# IRAK4 [2] = target: T1, IRAK4; experiment: 2-hour 10 μM ATP Biochemical Assay (MesoScale Detection format; IRAK4 phosphorylation of biotin labeled IRAK1 activation loop peptide); details: IRAK4 MSD BIOCHEMICAL (10 μM ATP) IC50 (μM), 1 nM IRAK4, 2 hours
# In short: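 Electrochemiluminescent MSD readout: after streptavidin capture, phosphothreonine on the biotin-labelled IRAK1 activation-loop peptide detected by rabbit antibody and Sulfo-Tag secondary. Phosphorylation ran 2 h with 10 μM ATP before EDTA quench.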
Compound,IC50 (IRAK4 [1]),IC50 (IRAK4 [2])
"CCOc1cc2nc(CCOC)cn2cc1NC(=O)c1cccc(C(F)F)n1 [Example 13, 6-(difluoromethyl)-N-(7-ethoxy-2-(2-methoxyethyl)imidazo[1,2-a]pyridin-6-yl)picolinamide]",0.003 µM,0.002 µM
"CCOc1cc2nc(C(C)(C)C#N)cn2cc1NC(=O)c1cccc(C(F)F)n1 [Example 152, N-(2-(2-cyanopropan-2-yl)-7-ethoxyimidazo[1,2-a]pyridin-6-yl)-6-(difluoromethyl)picolinamide]",0.004 µM,0.004 µM
"CCOc1cc2nc(C3(CO)CC3)cn2cc1NC(=O)c1cccc(C(F)F)n1 [Example 98, 6-(difluoromethyl)-N-(7-ethoxy-2-(1-(hydroxymethyl)cyclopropyl)imidazo[1,2-a]pyridin-6-yl)picolinamide]",0.018 µM,0.008 µM
"CCOc1cc2nc(C3(OCC)CCOCC3)cn2cc1NC(=O)c1cccc(C(F)F)n1 [Example 91, 6-(difluoromethyl)-N-(7-ethoxy-2-(4-ethoxytetrahydro-2H-pyran-4-yl)imidazo[1,2-a]pyridin-6-yl)picolinamide]",0.003 µM,0.001 µM
"CCOc1cc2nc(C3CC3)cn2cc1NC(=O)c1cccc(C(F)F)n1 [Example 3, N-(2-cyclopropyl-7-ethoxyimidazo[1,2-a]pyridin-6-yl)-6-(difluoromethyl)picolinamide]",0.009 µM,0.006 µM
"O=C(Nc1cn2cc(C3CCOCC3)nc2cn1)c1cccc(C(F)F)n1 [Example 330, 6-(difluoromethyl)-N-(2-(tetrahydro-2H-pyran-4-yl)imidazo[1,2-a]pyrazin-6-yl)picolinamide]",0.038 µM,0.023 µM
"COCCOc1cc2nc(C3CC3)cn2cc1NC(=O)c1cccc(C(F)F)n1 [Example 101, N-(2-cyclopropyl-7-(2-methoxyethoxy)imidazo[1,2-a]pyridin-6-yl)-6-(difluoromethyl)picolinamide]",0.029 µM,0.006 µM
"CCOc1cc2nc(CC3CCOC3)cn2cc1NC(=O)c1cccn(C)c1=O (stereo not shown) [Example 373, N-(7-ethoxy-2-((tetrahydrofuran-3-yl)methyl)imidazo[1,2-a]pyridin-6-yl)-1-methyl-2-oxo-1,2-dihydropyridine-3-carboxamide]",0.028 µM,0.008 µM
"CC1(C)CCC(Oc2cc3nc(C4CCOCC4)cn3cc2NC(=O)c2cccc(C(F)F)n2)C1 (stereo not shown) [Example 180, 6-(difluoromethyl)-N-(7-((3,3-dimethylcyclopentyl)oxy)-2-(tetrahydro-2H-pyran-4-yl)imidazo[1,2-a]pyridin-6-yl)picolinamide]",0.001 µM,0.001 µM
"CCOc1cc2nc(C3CCOCC3)cn2cc1NC(=O)c1cccc(C(C)C)n1 [Example 218, N-(7-ethoxy-2-(tetrahydro-2H-pyran-4-yl)imidazo[1,2-a]pyridin-6-yl)-6-isopropylpicolinamide]",0.002 µM,0.001 µM
"O=C(Nc1cn2cc(C3CC3)nc2cc1OCC(F)(F)F)c1cccc(C(F)F)n1 [Example 26, N-(2-cyclopropyl-7-(2,2,2-trifluoroethoxy)imidazo[1,2-a]pyridin-6-yl)-6-(difluoromethyl)picolinamide]",0.007 µM,0.003 µM
"CCOc1cc2nc(Cc3ccn(C)n3)cn2cc1NC(=O)c1cccc(C(F)F)n1 [Example 84, 6-(difluoromethyl)-N-(7-ethoxy-2-((1-methyl-1H-pyrazol-3-yl)methyl)imidazo[1,2-a]pyridin-6-yl)picolinamide]",0.015 µM,0.082 µM
"CCOc1cc2nc(C3CN(C(C)=O)C3)cn2cc1NC(=O)c1cccc(C(F)F)n1 [Example 81, N-(2-(1-acetylazetidin-3-yl)-7-ethoxyimidazo[1,2-a]pyridin-6-yl)-6-(difluoromethyl)picolinamide]",0.001 µM,0.001 µM
"CCOc1cc2nc(C3CCOCC3)cn2cc1NC(=O)c1cccc(C)n1 [Example 224, N-(7-ethoxy-2-(tetrahydro-2H-pyran-4-yl)imidazo[1,2-a]pyridin-6-yl)-6-methylpicolinamide]",0.003 µM,0.001 µM
